The values below are quoted from earlier work in patent USRE39151E1, “Process for the preparation and purification of thiol-containing maytansinoids” (Immunogen, Inc., priority 2000, dated 2006).

The subject of series [1] is P388 lymphocytic leukemia system. Conditions: in vivo.
For series [2] the following is noted: versus methotrexate, daunorubicin, and vincristine.
In series [3] the test system is Lewis lung carcinoma system.
A further series deals with L1210 cells. The following applies: L1210 cells treated in vivo; untreated control mitotic index 3.2 to 5.8%.
Series [4] deals with LY5178 murine leukemic cell suspensions. Conditions: in vitro, LY5178 cell suspension.
A further series relates to tubulin. The following applies: sea urchin eggs and clam eggs.
For series [5], the system named is P388 murine leukemic cell suspensions. The following applies: in vitro, P388 cell suspension.
The test system of series [6] is human nasopharyngeal carcinoma cells.
Series [7] has as its system L1210 murine leukemic cell suspensions. Conditions: in vitro, L1210 cell suspension.
For series [8] the following is noted: patients.
Series [9] deals with human acute lymphoblastic leukemia line C.E.M.
Series [10] relates to L1210 mouse leukemia system.
Series [11] has as its system B-16 melanocarcinoma system.

With `COc1cc2cc(c1Cl)N(C)C(=O)C[C@H](OC(=O)[C@H](C)N(C)C(C)=O)[C@]1(C)O[C@H]1[C@H](C)[C@@H]1C[C@@](O)(NC(=O)O1)[C@H](OC)/C=C/C=C(\C)C2` [maytansine], the “dosage range over which tumor growth was inhibited” value in series [1] was 50- to 100 fold. Besides, the “fold more cytotoxic than conventional cancer chemotherapeutic agents” value in series [2] is 100 to 1000 fold. For the same compound, the “inhibitory activity in vivo” value in [3], in series [10] and in series [11] was “significant inhibitory activity” throughout. For the same compound, in the series with L1210 cells, the “cells accumulating in mitosis” value is on record as 67%. The inhibitory dose in [4], in series [5] and in series [7] was 10^−3 to 10^−1 microgram/mL in each case. Moreover, the “effect on mitosis / microtubule formation” value in the series on tubulin is recorded as “inhibits mitosis by interfering with the formation of microtubules”. Further, in series [6], the “inhibition of in vitro growth” value is “active inhibitor”. The “adverse effects in clinical trials” value in series [8] was “associated with peripheral neuropathy that might be cumulative”. The “outcome of clinical trials” value in [8] is listed as “not favorable due to a number of side effects”. In series [9], the inhibitory concentration is listed as ≥ 10^−7 microgram/ml.
